# Species: Rattus norvegicus
# Test: Open TG-GATES - Regimen: Single
# Format: toxicity, organism-based, Sprague-Dawley
# Design: regimen Single, gender Male, age 6 weeks
# Conditions: in vivo, po, 60 mg/kg, route gavage, dose level Low; for APTT / Bas / Eos / Fbg / Hb / Ht / Lym / MCH / MCHC / MCV / Mono / Neu / PT / Plat / RBC / Ret / WBC: tissue Blood; for KIDNEY_L / KIDNEY_R / KIDNEY_TOTAL: tissue Kidney; for LIVER: tissue Liver; for A/G / ALP / ALT / AST / BUN / CRE / Ca / Cl / DBIL / GLC / IP / K / LDH / Na / PL / RALB / TBIL / TC / TG / TP / gamma-GTP: tissue Plasma
smiles,measurement,setting,value
CCOC(=O)[C@H](CCc1ccccc1)N[C@@H](C)C(=O)N1CCC[C@H]1C(=O)O,TERMINAL_BW,3 h,218.9 g
same,APTT,3 h,15.9 s
same,Bas,3 h,0%
same,Eos,3 h,1%
same,Fbg,3 h,216 mg/dL
same,Hb,3 h,13.2 g/dL
same,Ht,3 h,40.3%
same,Lym,3 h,75.6%
same,MCH,3 h,21.3 pg
same,MCHC,3 h,32.8%
same,MCV,3 h,64.7 fL
same,Mono,3 h,9.4%
same,Neu,3 h,14%
same,PT,3 h,12 s
same,Plat,3 h,113.1 x10_4/uL
same,RBC,3 h,622.2 x10_4/ul
same,Ret,3 h,8.4%
same,WBC,3 h,113.3 x10_2/uL
same,KIDNEY_L,3 h,0.9 g
same,KIDNEY_R,3 h,0.9 g
same,KIDNEY_TOTAL,3 h,1.9 g
same,LIVER,3 h,10.3 g
same,A/G,3 h,1.9
same,ALP,3 h,851.2 IU/L
same,ALT,3 h,38.6 IU/L
same,AST,3 h,65.6 IU/L
same,BUN,3 h,18.2 mg/dL
same,CRE,3 h,0.5 mg/dL
same,Ca,3 h,11 mg/dL
same,Cl,3 h,106 meq/L
same,DBIL,3 h,0.018 mg/dL
same,GLC,3 h,203.8 mg/dL
same,IP,3 h,9.8 mg/dL
same,K,3 h,5.3 meq/L
same,LDH,3 h,85 IU/L
same,Na,3 h,138.8 meq/L
same,PL,3 h,142.2 mg/dL
same,RALB,3 h,3.4 g/dL
same,TBIL,3 h,0.3 mg/dL
same,TC,3 h,84 mg/dL
same,TG,3 h,52.2 mg/dL
same,TP,3 h,5.3 g/dL
same,gamma-GTP,3 h,1.8 IU/L
same,TERMINAL_BW,6 h,221.6 g
same,APTT,6 h,15.7 s
same,Bas,6 h,0%
same,Eos,6 h,1%
same,Fbg,6 h,200 mg/dL
same,Hb,6 h,13.1 g/dL
same,Ht,6 h,39.2%
same,Lym,6 h,79.8%
same,MCH,6 h,21.7 pg
same,MCHC,6 h,33.3%
same,MCV,6 h,65.2 fL
same,Mono,6 h,5.2%
same,Neu,6 h,14.6%
same,PT,6 h,12 s
same,Plat,6 h,110.6 x10_4/uL
same,RBC,6 h,602.6 x10_4/ul
same,Ret,6 h,9.2%
same,WBC,6 h,122.1 x10_2/uL
same,KIDNEY_L,6 h,1 g
same,KIDNEY_R,6 h,1 g
same,KIDNEY_TOTAL,6 h,2 g
same,LIVER,6 h,9.9 g
same,A/G,6 h,2.2
same,ALP,6 h,728.2 IU/L
same,ALT,6 h,36.2 IU/L
same,AST,6 h,60.4 IU/L
same,BUN,6 h,22 mg/dL
same,CRE,6 h,0.5 mg/dL
same,Ca,6 h,11.1 mg/dL
same,Cl,6 h,104.8 meq/L
same,DBIL,6 h,0.054 mg/dL
same,GLC,6 h,196 mg/dL
same,IP,6 h,10.9 mg/dL
same,K,6 h,4.9 meq/L
same,LDH,6 h,85.2 IU/L
same,Na,6 h,139.4 meq/L
same,PL,6 h,136 mg/dL
same,RALB,6 h,3.6 g/dL
same,TBIL,6 h,0.5 mg/dL
same,TC,6 h,78.2 mg/dL
same,TG,6 h,44.4 mg/dL
same,TP,6 h,5.3 g/dL
same,gamma-GTP,6 h,1.4 IU/L
same,TERMINAL_BW,9 h,216 g
same,APTT,9 h,16.1 s
same,Bas,9 h,0%
same,Eos,9 h,1.2%
same,Fbg,9 h,195 mg/dL
same,Hb,9 h,12.7 g/dL
same,Ht,9 h,39.1%
same,Lym,9 h,77%
same,MCH,9 h,21.6 pg
same,MCHC,9 h,32.6%
same,MCV,9 h,66.3 fL
same,Mono,9 h,4.4%
same,Neu,9 h,17%
same,PT,9 h,11.7 s
same,Plat,9 h,111.5 x10_4/uL
same,RBC,9 h,590 x10_4/ul
same,Ret,9 h,8.6%
same,WBC,9 h,87.4 x10_2/uL
same,KIDNEY_L,9 h,1 g
same,KIDNEY_R,9 h,1 g
same,KIDNEY_TOTAL,9 h,2 g
same,LIVER,9 h,9.2 g
same,A/G,9 h,1.9
same,ALP,9 h,839.6 IU/L
same,ALT,9 h,33.2 IU/L
same,AST,9 h,69 IU/L
same,BUN,9 h,20.2 mg/dL
same,CRE,9 h,0.4 mg/dL
same,Ca,9 h,10.6 mg/dL
same,Cl,9 h,107 meq/L
same,DBIL,9 h,0.02 mg/dL
same,GLC,9 h,193.4 mg/dL
same,IP,9 h,11 mg/dL
same,K,9 h,5.1 meq/L
same,LDH,9 h,89.4 IU/L
same,Na,9 h,138.4 meq/L
same,PL,9 h,122.2 mg/dL
same,RALB,9 h,3.5 g/dL
same,TBIL,9 h,0.4 mg/dL
same,TC,9 h,66.8 mg/dL
same,TG,9 h,57 mg/dL
same,TP,9 h,5.3 g/dL
same,gamma-GTP,9 h,1.6 IU/L
same,TERMINAL_BW,24 h,228.5 g
same,APTT,24 h,16.3 s
same,Bas,24 h,0%
same,Eos,24 h,1.4%
same,Fbg,24 h,220 mg/dL
same,Hb,24 h,12.9 g/dL
same,Ht,24 h,39.1%
same,Lym,24 h,79.6%
same,MCH,24 h,21.5 pg
same,MCHC,24 h,33.2%
same,MCV,24 h,65 fL
same,Mono,24 h,5.4%
same,Neu,24 h,14%
same,PT,24 h,11 s
same,Plat,24 h,114.8 x10_4/uL
same,RBC,24 h,602.4 x10_4/ul
same,Ret,24 h,8.9%
same,WBC,24 h,88.3 x10_2/uL
same,KIDNEY_L,24 h,1 g
same,KIDNEY_R,24 h,1 g
same,KIDNEY_TOTAL,24 h,2.1 g
same,LIVER,24 h,11.3 g
same,A/G,24 h,2.1
same,ALP,24 h,986.4 IU/L
same,ALT,24 h,39.2 IU/L
same,AST,24 h,61.4 IU/L
same,BUN,24 h,16.8 mg/dL
same,CRE,24 h,0.5 mg/dL
same,Ca,24 h,11.1 mg/dL
same,Cl,24 h,104.6 meq/L
same,DBIL,24 h,0.006 mg/dL
same,GLC,24 h,202.4 mg/dL
same,IP,24 h,8.6 mg/dL
same,K,24 h,5.4 meq/L
same,LDH,24 h,110.4 IU/L
same,Na,24 h,138.6 meq/L
same,PL,24 h,157.2 mg/dL
same,RALB,24 h,3.9 g/dL
same,TBIL,24 h,0.4 mg/dL
same,TC,24 h,89.4 mg/dL
same,TG,24 h,94.6 mg/dL
same,TP,24 h,5.8 g/dL
same,gamma-GTP,24 h,1.8 IU/L
